Legend:
NF-κB = assay: Nuclear translocation of NF-κB in T cells (Western blot); assay type: cell-based; details: peptide 100 ng/ml for 2 hours, then anti-CD3 mAb 24 hr; human T cells
Source text: To address the modulatory role of the wound fluid peptides on the signal transduction cascade leading to regulation of T-cell secretion of TNF-α(and IFN-γ, the nuclear translocation of NF-κB was detected by probing nuclear and cytoplasmic T-cell extracts using mAb specific for the p65 subunit of NF-κB. The nuclear protein Lamin B was used as continuatively expressed control protein for the quantification of protein amounts.
Human T cells. T cells were purified from the peripheral blood of healthy human donors (Blood Bank; Tel-Hashomer, Israel). The whole blood was incubated (20 min, 22° C.) with RosetteSep™ human T-cell enrichment cocktail (StemCell Technologies, Vancouver, BC, Canada). The remaining unsedimented cells were then loaded onto Lymphocyte Separation Medium (ICN Biomedicals; Belgium), isolated by density centrifugation, and washed with PBS. The purified cells (>95% CD3^+ T cells) so obtained were cultured in RPMI containing antibiotics and 10% heat-inactivated FCS. Western blot analysis of T-cell nuclear extracts. Purified T cells (5×10^6) were preincubated with the peptides (100 ng/ml) for 2 hours (37° C. in a 7% CO2, humidified atmosphere). The cells were then replated in 24-well plates pre-coated with anti-CD3 mAb for 24 hr (37° C. in a 7% CO2, humidified atmosphere). T cells were lysed in 10 mM HEPES, 1.5 mM MgCl2, 1 mM dithiothreitol (DTT), 1 mM PMSF, 0.5% Nonidet P-40. The lysates were incubated on ice for 10 min and centrifuged at 2000 rpm for 10 min at 4° C. The supernatants (cytoplasmic extracts) were transferred and the pellet (nuclei) was suspended in buffer containing 30 mM HEPES, 450 mM NaCl, 25% Glycerol, 0.5 mM EDTA, 6 mM DTT, 12 mM MgCl2 1 mM PMSF, 10 μg/ml leupeptin, 10 μg/ml pepstatin, 1% phosphatase inhibitor cocktail, and the suspension was incubated on ice for 30 min. The lysates were cleared by centrifugation (30 min, 14×10^3 rpm, 4° C.), and the resulting supernatants analyzed for protein content. […]

[1] = test system: anti-CD3 antibody induced IFNγ secretion from T cells; assay: IFNγ secretion by anti-CD3 activated T cells; assay type: cell-based, human; set-up: concentration or dose not given beside the values; details: 24 hours; ELISA; FIG. 7B
Description: Human T cells were purified and maintained in culture (RPMI containing 10% FCS, 1% Pyruvate, 1% glutamine, 1% antibiotics, 7.5% CO2, humidified atmosphere) for 15 hr before they were transferred to RPMI and activated (2 hr, 37° C.) with the indicated concentrations of the peptides. The cells were then plated (1.5×10^6 cells/0.5 ml/well) in 24 wells plates (non-tissue culture grade) precoated with anti-CD3 mAb in order to stimulate the cells to secrete cytokines. After 24 hours, the supernatants were collected and their cytokine content (TNFα and IFNγ) was determined by ELISA using anti-IFNγ and anti TNFα mAb (Pharmingen; San Diego, Calif.) according to the manufacturer's instructions.

[2] = test system: mice sensitized with oxazolone; assay type: in vivo, mouse; details: FIG. 1; peptides by implanted osmotic pump, 0.2 μg/hour for 7 days; ear measured 24 hours after oxazolone challenge; BALB/c mice
Description: Groups of 5 female inbred BALB/c mice (The Jackson Laboratory, Bar Harbor, Me.) were sensitized on the shaved abdominal skin with 2% oxazolone (100 μl) dissolved in acetone/olive oil [4:1 (vol/vol)] applied topically. Delayed type hypersensitivity (DTH) was elicited 5 days later by challenging the mice with 0.5% oxazolone in acetone/olive oil (10 μl given topically to each side of the ear). A constant area of the ear was measured immediately before and 24 hours after the challenge using a Mitutoyo engineer's micrometer. The percent inhibition of DTH is calculated as follows:
% Inhibition=[1-{(treated−negative control)/(positive control−negative control)}]×100.
The positive control is the DTH reaction to oxazolone elicited in sensitized mice without treatment. The negative control is the background swelling produced by the oxazolone antigen in naïve non-sensitized mice.
Peptides Nos. 1-5 were given to the mice by mini perfusion pumps (alzet osmotic pump model 2001), which contained the indicated peptide (40 μg; 200 μl). The pumps were implanted under the mouse skin one day before oxazolone sensitization and they released the peptide in a rate of 1 μl per hour (0.2 μg/hour) for 7 days.
Peptides Nos. 6-10 were given to the mice by subcutaneously injection (1 μg or 10 μg per mouse), every day, starting at one day before oxazolone sensitization and ending at day 5 post DTH initiation.

WDNLEKETEGL [peptide No. 3, residues 96-106 of Apo A-I; identified in wound fluids, then synthesized]
NF-κB translocation to the nucleus (NF-κB): significant down-regulation | inhibition of anti-CD3 antibody induced IFNγ secretion from T cells [1]: 65% | inhibition of DTH response [2]: ~40%
